# Data as given in patent US10912814B2, “Combination formulation of three antiviral compounds” (priority 2016, dated 2021).
# Legend:
# [1] = Storage stability: appearance, assay/label strength (LS), total impurities/degradation products; type: physicochemical; conditions: for total impurities/degradation products: all conditions; for I/D (%): tablets, desiccant study
# Description: In some embodiments, the film-coated tablets were packaged in 75 and 100 mL white HDPE bottles (Lots A and B, respectively, as described in Tables 11A, 11B) with 1 g silica gel desiccant canisters and a polyester fiber coil. The 75 and 100 mL HDPE bottles contained fourteen and twenty eight tablets, respectively. Each HDPE bottle was capped using a white, continuous thread, child-resistant polypropylene screw cap with an […], aluminum-faced line. The packaged tablets (14 and 28 counts) were evaluated for stability at 40° C./75% RH and 25° C./60% RH. Additionally, the 14-count bottles (without cap) were evaluated for stability under open conditions at 40° C./75% RH.
# For each of the impact studies, the sofosbuvir/velpatasvir SSD/voxilaprevir SSD tablets were packaged in a designated commercial packaging configuration (28-count, 100 mL HPDE bottle, coil, 1 g desiccant), and stored for 12 weeks at 25° C./60% RH and 40° C./75% RH. Tablets were also packaged in open containers (28-count, 100 mL HPDE bottle without cap) and stored for 4 weeks at 40° C./75% RH and for 1 week at 50° C./92% RH.
# The sofosbuvir/velpatasvir SSD/voxilaprevir SSD tablets were packaged in the designated commercial packaging configuration (28-count, 100 mL HPDE bottle, coil, 1 g desiccant), and stored for 6 months at 25° C./60% RH and 40° C./75% RH.
# [2] = Tablet dissolution in 50 mM sodium acetate buffer pH 5.0 with 2.0% w/v Polysorbate 80 and 0.001% w/v BHT, 75 rpm, 900 mL, 37° C., USP Type II; type: physicochemical
# [3] = tablets from VEL SSD 7.0% / VOX SSD 3.2% water content, open, no desiccant, 40° C./75% RH, 4 weeks
# [4] = tablets from copovidone with 544 ppm (VEL SSD) / 655 ppm (VOX SSD) peroxides, Initial, time 0
# [5] = tablets from copovidone with 544 ppm (VEL SSD) / 655 ppm (VOX SSD) peroxides, closed, 1 g desiccant, 25° C./60% RH, 12 weeks
# [6] = tablets from copovidone with 544 ppm (VEL SSD) / 655 ppm (VOX SSD) peroxides, closed, 1 g desiccant, 40° C./75% RH, 4 weeks
# [7] = tablets from copovidone with 544 ppm (VEL SSD) / 655 ppm (VOX SSD) peroxides, closed, 1 g desiccant, 40° C./75% RH, 12 weeks
# [8] = tablets from copovidone with 544 ppm (VEL SSD) / 655 ppm (VOX SSD) peroxides, open, no desiccant, 40° C./75% RH, 4 weeks
compound,measurement,setting,value
"CC(C)OC(=O)C(C)N[P@](=O)(OC[C@H]1O[C@@H](n2ccc(=O)[nH]c2=O)[C@](C)(F)[C@@H]1O)Oc1ccccc1 (stereo in doubt) [Sofosbuvir, (S)-isopropyl 2-(((S)-(((2R,3R,4R,5R)-5-(2,4-dioxo-3,4-dihydropyrimidin-1(2H)-yl)-4-fluoro-3-hydroxy-4-methyltetrahydrofuran-2-yl)methoxy)(phenoxy)phosphoryl)amino)propanoate]",Total Imp./Deg. (%),[1]; [3],0.0%
same,total impurities/degradation products,[1]; tablets from VEL SSD with 6.0% residual ethanol and VOX SSD with 2.1% residual acetone,0.0%
same,total impurities/degradation products,[1]; tablets from VEL SSD with 7.0% and VOX SSD with 3.2% water content,0.0%
same,Total Imp./Deg. (%),[1]; [4],0.0%
same,Total Imp./Deg. (%),[1]; [5],0.0%
same,Total Imp./Deg. (%),[1]; [6],0.0%
same,Total Imp./Deg. (%),[1]; [7],0.0%
same,Total Imp./Deg. (%),[1]; [8],0.0%
same,I/D (%),"[1]; closed, 1 g desiccant, 25° C./60% RH, 12 weeks",0.0%
same,I/D (%),"[1]; closed, 1 g desiccant, 25° C./60% RH, 24 weeks",0.0%
same,I/D (%),"[1]; closed, 1 g desiccant, 40° C./75% RH, 4 weeks",0.0%
same,I/D (%),"[1]; closed, 1 g desiccant, 40° C./75% RH, 12 weeks",0.0%
same,I/D (%),"[1]; closed, 1 g desiccant, 40° C./75% RH, 24 weeks",0.0%
same,I/D (%),"[1]; closed, no desiccant, 25° C./60% RH, 12 weeks",0.0%
same,I/D (%),"[1]; closed, no desiccant, 25° C./60% RH, 24 weeks",0.0%
same,I/D (%),"[1]; closed, no desiccant, 40° C./75% RH, 4 weeks",0.0%
same,I/D (%),"[1]; closed, no desiccant, 40° C./75% RH, 12 weeks",0.0%
same,I/D (%),"[1]; closed, no desiccant, 40° C./75% RH, 24 weeks",0.0%
same,Dissolved at 30 min (%),"[2]; Batch C tablets, closed 1 g desiccant, 25° C./60% RH, 6 months",99%
same,Dissolved at 30 min (%),"[2]; Batch C tablets, closed 1 g desiccant, 30° C./75% RH, 3 months",99%
same,Dissolved at 30 min (%),"[2]; Batch C tablets, closed 1 g desiccant, 40° C./75% RH, 3 months",100%
same,Dissolved at 30 min (%),"[2]; Batch C tablets, closed 1 g desiccant, 40° C./75% RH, 6 months",99%
same,Dissolved at 30 min (%),"[2]; Lot A tablets (super-potent VEL SSD, super-potent VOX SSD), Initial, time 0",100%
same,Dissolved at 30 min (%),"[2]; Lot A tablets (super-potent VEL SSD, super-potent VOX SSD), closed, 1 g desiccant, 25° C./60% RH, 12 weeks",99%
same,Dissolved at 30 min (%),"[2]; Lot A tablets (super-potent VEL SSD, super-potent VOX SSD), closed, 1 g desiccant, 40° C./75% RH, 12 weeks",100%
same,Dissolved at 30 min (%),"[2]; Lot B tablets (sub-potent VEL SSD, sub-potent VOX SSD), Initial, time 0",83%
same,Dissolved at 30 min (%),"[2]; Lot B tablets (sub-potent VEL SSD, sub-potent VOX SSD), closed, 1 g desiccant, 25° C./60% RH, 12 weeks",82%
same,Dissolved at 30 min (%),"[2]; Lot B tablets (sub-potent VEL SSD, sub-potent VOX SSD), closed, 1 g desiccant, 40° C./75% RH, 4 weeks",85%
same,Dissolved at 30 min (%),"[2]; Lot B tablets (sub-potent VEL SSD, sub-potent VOX SSD), closed, 1 g desiccant, 40° C./75% RH, 12 weeks",84%
same,Dissolved at 30 min (%),"[2]; Lot B tablets (sub-potent VEL SSD, sub-potent VOX SSD), open, no cap, 40° C./75% RH, 4 weeks",100%
same,Dissolved at 30 min (%),"[2]; Lot C tablets (sub-potent VEL SSD, super-potent VOX SSD), Initial, time 0",99%
same,Dissolved at 30 min (%),"[2]; Lot C tablets (sub-potent VEL SSD, super-potent VOX SSD), closed, 1 g desiccant, 25° C./60% RH, 12 weeks",98%
same,Dissolved at 30 min (%),"[2]; Lot C tablets (sub-potent VEL SSD, super-potent VOX SSD), closed, 1 g desiccant, 40° C./75% RH, 4 weeks",100%
same,Dissolved at 30 min (%),"[2]; Lot C tablets (sub-potent VEL SSD, super-potent VOX SSD), closed, 1 g desiccant, 40° C./75% RH, 12 weeks",98%
same,Dissolved at 30 min (%),"[2]; Lot C tablets (sub-potent VEL SSD, super-potent VOX SSD), open, no cap, 40° C./75% RH, 4 weeks",99%
same,Dissolved at 30 min (%),"[2]; Lot D tablets (super-potent VEL SSD, sub-potent VOX SSD), closed, 1 g desiccant, 25° C./60% RH, 12 weeks",98%
same,Dissolved at 30 min (%),"[2]; Lot D tablets (super-potent VEL SSD, sub-potent VOX SSD), closed, 1 g desiccant, 40° C./75% RH, 4 weeks",98%
same,Dissolved at 30 min (%),"[2]; Lot D tablets (super-potent VEL SSD, sub-potent VOX SSD), closed, 1 g desiccant, 40° C./75% RH, 12 weeks",98%
same,Dissolved at 30 min (%),"[2]; Lot D tablets (super-potent VEL SSD, sub-potent VOX SSD), open, no cap, 40° C./75% RH, 4 weeks",99%
same,dissolution at 30 minutes,"[2]; SSD potency tablets Lot B, after 4 weeks open at 40° C./75% RH",100%
same,released at 30 minutes,[2]; tablet Lots A and B made with different sofosbuvir particle size distributions,101%
same,Dissolved at 30 min (%),"[2]; tablets Batch A, 25° C./60% RH, 3 mo",98%
same,Dissolved at 30 min (%),"[2]; tablets Batch A, 25° C./60% RH, 6 mo",98%
same,Dissolved at 30 min (%),"[2]; tablets Batch A, 30° C./75% RH, 3 mo",98%
same,Dissolved at 30 min (%),"[2]; tablets Batch A, 40° C./75% RH, 1 mo",98%
same,Dissolved at 30 min (%),"[2]; tablets Batch A, 40° C./75% RH, 6 mo",100%
same,Dissolved at 30 min (%),"[2]; tablets Batch B, 25° C./60% RH, 3 mo",99%
same,Dissolved at 30 min (%),"[2]; tablets Batch B, 25° C./60% RH, 6 mo",99%
same,Dissolved at 30 min (%),"[2]; tablets Batch B, 30° C./75% RH, 3 mo",99%
same,Dissolved at 30 min (%),"[2]; tablets Batch B, 30° C./75% RH, 6 mo",99%
same,Dissolved at 30 min (%),"[2]; tablets Batch B, 40° C./75% RH, 1 mo",100%
same,Dissolved at 30 min (%),"[2]; tablets Batch B, 40° C./75% RH, 3 mo",100%
same,Dissolved at 30 min (%),"[2]; tablets Batch B, Initial, 0 mo",99%
same,Dissolved at 30 min (%),"[2]; tablets Batch D, Initial, 0 mo",100%
same,Dissolved at 30 min (%),"[2]; tablets from VEL SSD 7.0% / VOX SSD 3.2% water content, Initial, time 0",100%
same,Dissolved at 30 min (%),"[2]; tablets from VEL SSD 7.0% / VOX SSD 3.2% water content, closed, 1 g desiccant, 25° C./60% RH, 12 weeks",98%
same,Dissolved at 30 min (%),"[2]; tablets from VEL SSD 7.0% / VOX SSD 3.2% water content, closed, 1 g desiccant, 40° C./75% RH, 12 weeks",99%
same,Dissolved at 30 min (%),[2]; [3],100%
same,Dissolved at 30 min (%),[2]; [4],99%
same,Dissolved at 30 min (%),[2]; [5],99%
same,Dissolved at 30 min (%),[2]; [6],99%
same,Dissolved at 30 min (%),[2]; [7],99%
same,Dissolved at 30 min (%),[2]; [8],100%
same,Dissolved at 30 min (%),"[2]; tablets, desiccant study, closed, 1 g desiccant, 40° C./75% RH, 4 weeks",99%
same,Dissolved at 30 min (%),"[2]; tablets, desiccant study, closed, 1 g desiccant, 40° C./75% RH, 12 weeks",99%
same,Dissolved at 30 min (%),"[2]; tablets, desiccant study, closed, 1 g desiccant, 40° C./75% RH, 24 weeks",100%
same,Dissolved at 30 min (%),"[2]; tablets, desiccant study, closed, no desiccant, 25° C./60% RH, 12 weeks",99%
same,Dissolved at 30 min (%),"[2]; tablets, desiccant study, closed, no desiccant, 40° C./75% RH, 12 weeks",99%
